Measured values as given in patent US4921849A, “Injection containing 3-benzoyloxy-1,3,5(10)-estratriene-17-[4-{p-(bis(2-chloroethyl)amino)phe nyl}butanoyloxy)acetate as an active ingredient” (priority 1987, dated 1990).

How the values were obtained:
estradiol receptor = details: cited from earlier work
cells = details: cited from earlier work
[1] = system: Walker 256 carcino sarcoma; assay: Life span of rats bearing Walker 256 carcino sarcoma after injection from the femoral artery; format: in vivo, female Wistar rats; details: for elongated life time (T/C=test/control): control = physiological saline; for mean survival days (MST): right femoral artery, 8th or 9th day after transplantation
Description: A predetermined amount (shown in Table 1) of 3-benzoyloxy-1,3,5(10)-estratriene-17β-[4-{p-(bis(2-chloroethyl)amino)phenyl}butanoyloxy]acetate or adriamycin was added to 6.5 g of LIPIODOL® and the mixture was stirred for 15 minutes at 25° C. to obtain a solution as the injection of each active ingredient. Each solution was put into a sterilized vials.
A walker 256 carcino sarcoma (solid) of about 3 mm square in size was transplanted subcutaneously to the left brachial part and the left femoral part of each of female Wistar rats (the age of 6 weeks and one group consisting of 5 animals) of respective group.
On the 8th or 9th day after the transplantation, each of the injections prepared in Example 1 was injected into each rat of respective testing group from the right femoral artery by a catheter and physiological saline solution or 6.5 g of LIPIODOL® was injected into each rat of the control group or the LIPIODOL group in the same manner as above.
After having observed the state of the test animals, the mean survival days (MST) and the elongated life time (T/C=test/control) were calculated.

Acute toxicity in rats = format: in vivo
Description: Concerning an acute toxicity (LD50) of the present derivative, even when rats were administered orally with the maximum administrable amount (6,000 mg/kg), no death case has been observed and when rats were injected intraperitoneally in a form of sesame oil solution, its LD50 has been over 3,000 mg/kg. Accordingly, the present derivative is a medicine extremely high in safety. In a mean while, LD50 of LIPIODOL® has been 7,000 mg/kg when it was administered intravenously to rabbits.

Solubility in oils = format: physicochemical
[2] = cited from earlier work
[3] = oral administration; cited from earlier work

Row | SMILES | affinity to the estradiol-receptor (estradiol receptor) | decomposition/conversion within cells (cells) | stability in cells (cells) | elongated life time (T/C=test/control) ([1]; 100 mg in 6.5 g of LIPIODOL) [%] | mean survival days (MST) ([1]; 100 mg in 6.5 g of LIPIODOL) [days] | death cases (acute toxicity) (Acute toxicity in rats; orally, maximum administrable amount 6,000 mg/kg) | LD50 (Acute toxicity in rats; rat, in vivo, ip, intraperitoneally, sesame oil solution) [mg/kg] | solubility in ester of iodinated poppy oil fatty acid (Solubility in oils; ester of iodinated poppy oil fatty acid) | solubility in ordinary oils (Solubility in oils; ordinary oils) | stability in vivo [2] | accumulation in cancer cells versus normal cells ([2]; in vivo) | adsorption rate in intestines [3] | elongated life time (T/C=test/control) ([1]; 10 mg in 6.5 g of LIPIODOL) [%] | mean survival days (MST) ([1]; 10 mg in 6.5 g of LIPIODOL) [days]
1 | C[C@]12CC[C@@H]3c4ccc(O)cc4CC[C@H]3[C@@H]1CC[C@@H]2OC(=O)COC(=O)CCCc1ccc(N(CCCl)CCCl)cc1 [KM-2202, 3-hydroxy-1,3,5(10)-estratriene-17-[4-{p-(bis(2-chloroethyl)amino)phenyl}butanoyloxy]-acetate] | has an affinity to the estradiol receptor | decomposed slowly into estradiol and chlorambucil within cells | relatively unstable in cells |  |  |  |  |  |  |  |  |  |  | 
2 | C[C@]12CC[C@@H]3c4ccc(OC(=O)c5ccccc5)cc4CC[C@H]3[C@@H]1CC[C@@H]2OC(=O)COC(=O)CCCc1ccc(N(CCCl)CCCl)cc1 [present derivative, 3-benzoyloxy-1,3,5(10)-estratriene-17-[4-{p-(bis(2-chloroethyl)amino)phenyl}-butanoyloxy]acetate] | scarcely any function as an alkylating agent and any affinity to the estradiol-receptor | hydrolyzed by an enzyme |  | 234.3 | 41.0 | no death case | > 3000 | can be uniformly dissolved in the ester | does not completely dissolve in ordinary oils | relatively stable in vivo | accumulates in larger amount in cancer cells than in normal cells | low adsorption rate |  | 
3 | COc1cccc2c1C(=O)c1c(O)c3c(c(O)c1C2=O)C[C@@](O)(C(=O)CO)C[C@@H]3O[C@H]1C[C@H](N)[C@H](O)[C@H](C)O1 [Adriamycin] |  |  |  | < 5.7 | < 1 |  |  |  |  |  |  |  | 140.7 | 24.5
